According to the NIST ThermoML archive (doi:10.1007/s10765-012-1371-1):

Experiment: xn = mol fraction of the nth substance listed
Conditions: 101 kPa, Liquid

CCCCOCC [butyl ethyl ether] + CCCCCl
viscosity [mPa·s]
Conditions | 283.15 K | 288.15 K | 293.15 K | 298.15 K | 303.15 K | 308.15 K | 313.15 K
x2 = 0 | 0.4796 | 0.4509 | 0.4242 | 0.399 | 0.3756 | 0.356 | 0.3416
x2 = 0.0515 | 0.4815 | 0.4523 | 0.4254 | 0.4002 | 0.3771 | 0.3576 | 0.3426
x2 = 0.1016 | 0.4832 | 0.4536 | 0.4265 | 0.4014 | 0.3785 | 0.359 | 0.3435
x2 = 0.2008 | 0.4862 | 0.4561 | 0.4286 | 0.4036 | 0.3812 | 0.3618 | 0.3452
x2 = 0.3003 | 0.489 | 0.4583 | 0.4307 | 0.4058 | 0.3839 | 0.365 | 0.3473
x2 = 0.4002 | 0.4914 | 0.4604 | 0.4326 | 0.408 | 0.3868 | 0.368 | 0.3493
x2 = 0.5014 | 0.4934 | 0.4623 | 0.4345 | 0.4102 | 0.3895 | 0.3712 | 0.3514
x2 = 0.6023 | 0.4951 | 0.4641 | 0.4364 | 0.4123 | 0.3925 | 0.3744 | 0.3537
x2 = 0.7003 | 0.4965 | 0.4657 | 0.4381 | 0.4145 | 0.3954 | 0.3777 | 0.3559
x2 = 0.8004 | 0.4977 | 0.4672 | 0.4398 | 0.4167 | 0.3985 | 0.381 | 0.3585
x2 = 0.9006 | 0.4986 | 0.4687 | 0.4416 | 0.4191 | 0.4016 | 0.3846 | 0.3612
x2 = 0.9502 | 0.4989 | 0.4694 | 0.4424 | 0.4201 | 0.4033 | 0.3866 | 0.3627
